Results reported in patent US7728015B2, “Compositions for weight management” (Mor Research Applications Ltd., priority 2004, dated 2010).
Read-outs that look alike come from different tables or passages of the source.

Experiments:
[1] = target: H3-receptor (Homo sapiens, UniProt Q9Y5N1); conditions: receptor binding studies; cited from earlier work
[2] = Randomized placebo controlled double-blinded study of oral betahistine on food intake, caloric intake and weight in obese persons; assay type: in vivo, human
Procedure: Weight, caloric intake (24 hour recall) and appetite during the day (VAS, Visual Analogue Score) were obtained on day 0, 14 and 28 of the study. Subjects were instructed to eat according to their appetite without limitations. Statistical significance was assessed with t-test. BMI stands for body mass index.

[3] = cited from earlier work
[4] = in vivo, cited from earlier work
[5] = pygmy goats, high doses intraperitoneally; cited from earlier work
[6] = rats, cited from earlier work
[7] = Blood metabolite levels of a healthy overweight person before and after one month of betahistine; assay type: in vivo, human; parameters: Total cholesterol / HDL-cholesterol / LDL-cholesterol / Triglycerides: unit not given here
[8] = rats, cited from earlier work; remark: listed apart in the source
[9] = betahistine 16 mg orally twice a day, FIG. 5
[10] = Day 30, betahistine 16 mg twice daily, blood test

H3-receptor, sequence (Q9Y5N1 whole entry): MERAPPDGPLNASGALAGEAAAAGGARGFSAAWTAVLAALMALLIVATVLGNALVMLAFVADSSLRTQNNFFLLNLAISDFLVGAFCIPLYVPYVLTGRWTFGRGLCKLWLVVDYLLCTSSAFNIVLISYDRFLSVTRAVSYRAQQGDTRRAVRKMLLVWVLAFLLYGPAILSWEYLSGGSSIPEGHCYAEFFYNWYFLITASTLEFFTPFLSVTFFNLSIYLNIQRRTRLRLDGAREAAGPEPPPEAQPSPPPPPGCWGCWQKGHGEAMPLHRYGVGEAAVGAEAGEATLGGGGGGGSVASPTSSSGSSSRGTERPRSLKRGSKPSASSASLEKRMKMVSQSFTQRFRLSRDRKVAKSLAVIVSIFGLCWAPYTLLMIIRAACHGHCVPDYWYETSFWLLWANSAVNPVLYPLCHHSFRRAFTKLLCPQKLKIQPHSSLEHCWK

CNCCc1ccccn1 [betahistine, 2-[2-(methylamino)ethyl]pyridine]
H3-receptor activity [1]: potent H3-receptor antagonist | adverse event reported by a subject ([2]; Subject No. 5, day 5, betahistine 16 mg twice a day): food aversion that did not allow them to consume any food | reduction in carbohydrate consumption [2, 9]: 6% | reduction in fat consumption [2, 9]: 49% | reduction in protein consumption [2, 9]: 35% | total caloric intake ([2]; betahistine 16 mg orally twice a day, day 14 of treatment): 80 percents of the pre-treatment level | total caloric intake ([2]; betahistine 16 mg orally twice a day, day 28 of treatment): 68 percents of the pre-treatment level | subjects who lost more than 1 kg during the study period ([2]; treatment group, 28 day study, no food restriction): Four out of seven | weight gain from week 2 to the end of the study ([3]; betahistine and olanzapine for 6 weeks, three patients): no weight gain was observed | mean weight gain compared with olanzapine/placebo-treated patients ([3]; betahistine/olanzapine-treated patients, 6 weeks): lower | half-life [4]: about 3.5 hours | half-life ([4]; listed as Betahistine): 3.5 h | food intake [5]: decreased food intake | water intake [5]: increased water intake | food intake ([6]; given intragastrically): this effect was not seen | food intake ([6]; given intraperitoneally): decreased food intake | Fructoseamine [7, 10]: 202 | HDL-cholesterol [7, 10]: 58 | LDL-cholesterol [7, 10]: 84 | Total cholesterol [7, 10]: 155 | Triglycerides [7, 10]: 62 | Fructoseamine Change ([7]; Day 30 vs Day 0): +4% | HDL-cholesterol Change ([7]; Day 30 vs Day 0): +7% | LDL-cholesterol Change ([7]; Day 30 vs Day 0): −15% | Total cholesterol Change ([7]; Day 30 vs Day 0): −7% | Triglycerides Change ([7]; Day 30 vs Day 0): −10%

Cc1nc(N)nc(N)c1-c1ccc(Cl)c(Cl)c1 [metoprine]
half-life [4]: 216 h | intakes of carbohydrates or protein ([8]; FIG. 2): no marked effect | daily energy intake and ingestion of fat ([8]; intraperitoneal injection): suppressed daily energy intake and ingestion of fat
